System: 14-3-3
Assay: Binding of p53 peptides to 14-3-3, isoform not given
Details: isoform not specified; wild-type p53CT tested up to 200 µM; pS392 by AUC

WT TC (293–393): wild-type tetramerization plus C-terminal domains of p53 (293–393), semi-synthetic
binding to 14-3-3 (in words): very weak binding
